Test results taken from paper PMC11117691, “Flipping the GPCR Switch: Structure-Based Development of Selective Cannabinoid Receptor 2 Inverse Agonists” (ACS Central Science, 2024).

How the values were obtained:
[1] = target: T1, hCB2R (Homo sapiens, UniProt P34972); assay: cAMP HTRF assay in hCB2R-CHO cells; type: cell-based; design: expressed in transfected cells
Excerpt: One of the canonical signaling pathways of CB2R involves association with Gαi/o proteins, which elicit reversible inhibition of adenylyl cyclase resulting in a decrease of cellular cAMP levels and suppression of protein kinase A activity.[67] Consequently, we have investigated the change in cAMP levels upon probe addition using homogeneous time-resolved fluorescence (HTRF) cAMP assay (Table 3).
Homogeneous Time-Resolved Fluorescence (HTRF) cAMP assay
The homogeneous time-resolved fluorescence (HTRF) cAMP assay was conducted according to the manufacturer’s protocol for the cAMP-Gs Dynamic kit (Cisbio). Briefly, the CHO cell line stably overexpressing CB2R was maintained in Ham’s F12 supplemented with 10% FBS, penicillin (100 U/mL, Gibco-ThermoFisher), streptomycin (100 μg/mL, Gibco-ThermoFisher) and G418 (400 μg/mL, ThermoFisher). For CB2R compounds test, the cells were harvested with Cell Dissociation Buffer, resuspended in F-12 K at 0.4×10^6 cells/mL, and dispensed into 384-well low volume plates at 2000 cells/5 μL per well. The cells were stimulated with compounds diluted in Stimulation Buffer (2.5 μL/well) for 15 min at room temperature, followed by the addition of forsklin (2.5 μL 25 μM). After 15 mins incubation, reactions were stopped by 5 μL/well cAMP-d2 conjugate working solution followed by 5 μL/well of anti-cAMP cryptate working solution. After incubation for 1 h at room temperature, the plates were read in a PerkinElmer Envision reader for Time-Resolved Förster Resonance Energy Transfer (TR-FRET) at 620 nm and 665 nm.
β–arrestin recruitment assay
SNAP-tagged human CB2R HEK293-TR cells were maintained in a humidified environment at 37 °C and 5% CO2 in Dulbecco’s modified Eagle’s medium (DMEM) with 10% fetal bovine serum (FBS) containing blasticidin (5 µg/mL; Invitrogen) and (Zeocin; 20 µg/mL; Invitrogen). For receptor-inducible expression, cells were seeded into t175 cm2 flasks, grown to 70% confluence and DMEM containing 1 µg/ml tetracycline added.
HEK293TR-CB2R-nLuc cells expressing a fluorescently labelled β-arrestin protein were maintained in a humidified environment at 37 °C and 5% CO2 in Dulbecco’s modified Eagle’s medium (DMEM) with 10% fetal bovine serum (FBS) containing blasticidin (5 µg/mL; Invitrogen), Zeocin (20 µg/mL; Invitrogen) and G418 (0.2 mg/mL; Invitrogen) and used to assess compound stimulated β-arrestin recruitment to the human CB2R. Cultured cells were harvested upon reaching 70% confluency and plated at a seeding density of 50,000 cells per well. The cells were grown for 48 h until they reached confluency and then stimulated with 1 μg/mL tetracycline for a further 48 h to induce CB2R expression. Cell culture media was then aspirated from the wells and the cells were washed with assay buffer, 100 μL/well HBSS containing 0.5% BSA and 5 mM

[2] = target: T1, hCB2R; type: cell-based; design: expressed in transfected cells; host or cells: HEK293TR cells, tetracycline-induced, live cells; settings: HEK293TR-CB2R-nLuc cells, representative of N = 3
Protocol: HEPES. Following the wash, assay buffer containing 10 μM furimazine, 90 μL/well was added
to the wells. The plate was then incubated at 37 °C for 15 minutes to allow the nanoLuc substrate
furimazine to enter the cells. Three BRET cycles of 1-minute intervals were performed to assess
basal BRET levels, following which 10 μL of each compound, diluted in assay buffer was added
to the assay plate, which was read at 1-minute intervals for 30 minutes.
Buffer containing 10% DMSO (1% final) served as the vehicle control and
The assay buffer used to profile compounds in the CB 2R Gi-CASE system consisted of HBSS
containing 0.02% pluronic F127, 0.5% BSA and 5 mM HEPES. The reference compounds HU -
polypropylene plate. 0.5 µL of the reference and test compound serial dilutions was then added to
a white 384 well OptiplateTM (PerkinElmer) containing 39.5 μL of assay buff er. Finally, the CB 2R
membranes containing the G i-CASE biosensor were thawed and added into assay buffer containing
50 µM furimazine. Membranes (10 μL) were added to the assay plate at a final concentration of 5
µg/well. The total assay volume was 50 µL.

[3] = target: T1, hCB2R; assay: TR-FRET kinetic binding assay at CB2R; design: expressed in transfected cells; host or cells: HEK293-TR cells, tetracycline-induced; membrane preparations; settings: for ΔΔG (Experimental): (R)-3 in comparison to (S)-3, from experimental Kd values
[4] = target: T1, hCB2R; assay: BRET Gi-CASE G protein recruitment membrane assay; type: biochemical; design: expressed in transfected cells; host or cells: HEK293-TR cells, tetracycline-induced; membrane preparations; settings: hCB2R-HEK293 T-REx membranes, mean N = 3–4; read-out: pEC50 (Gi-CASE G protein recruitment) (converted)
[5] = target: T1, hCB2R; assay: Radioligand binding assay with [3H]-CP55,940; design: expressed in transfected cells; settings: [3H]-CP55,940 competition, CHO-hCB2R membranes, 2 h at 30 °C
Protocol: For bindings experiments CHO cells stably expressing the human CB2R were used.14 […]
Radioligand binding assays were performed with [3H]-CP55,940 (Perkin Elmer, Austria) .
Membrane preparation was carried out according to previously published protocols.15 Briefly, competition binding experiments were carried out in duplicates at a final volume of 300 µL containing binding buffer (50 mM Tris-HCl, 2.5mM EDTA, 5 mM MgCl2, 0.5 mg/mL fatty acid-free BSA; pH 7.4), [3H]-CP55,940 (0.3 nM final concentration), compounds (semi logarithmically -spaced concentrations ranging from 0.1 nM to 10 µM) and membranes (2 µg/assay) in silanized glass vials. The reaction mixture was incubated for 2 h at 30 °C. Nonspecific binding was determined in the presence of AM630 (10 µM). Bound radioligand was separated from free radioligand by rapid filtration using 0.1% polyethlyenimine -presoaked GF/C glass fiber filter and a Skatron cell harvester. The radioactivity retained on the filters was measured by liquid scintillation. IC 50 and Ki values obtained from radioligand competition binding assays were determined by fitting the data to a three-parameter logistic Hill equation and applying the Cheng and Prusoff approximation. Data were normalized to specific binding of [3H]-CP55,940 in absence of compounds as maximum percentage (100%), which refers to an average of 4500 -5000 fmoles/mg protein for CB2R. […]

[6] = target: T1, hCB2R; assay: TR-FRET saturation binding assay at CB2R; design: expressed in transfected cells; host or cells: HEK293-TR cells, tetracycline-induced; membrane preparations; settings: TR-FRET, room temperature, HEK293 membranes of SNAP-Lumi4-Tb labeled hCB2R
[7] = test system: rat CB2R; assay: Live cell fluorescent Ca2+ imaging (Fluo-4AM) in AtT-20(rCB2R) cells; type: cell-based; settings: 20 μM, live AtT-20(rCB2R) cells; HU-308 added after (S)-3/(R)-3
Protocol: Live AtT-20 cells overexpressing rat CB2R [AtT-20(rCB2R)] were treated with Fluo-4AM Ca^2+ dye and imaged by confocal microscopy (Figure 7). […] Ionomycin was added at the end of the experiment to saturate Ca^2+ levels.
Culture media (D10): Contains high glucose DMEM (450 mL, Gibco, #11965-092), FBS (50 mL, HyClone’s USDA tested, #SH30910), antibiotic Penicillin-strep (2.5 mL, Gibco, #15070).
Sterile filtered and aliquoted.
Culture media (D10) with hygromycin-B selection: Contains high glucose DMEM (450 mL, Gibco, #11965-092), FBS (50 mL, HyClone’s USDA tested, #SH30910), antibiotic Penicillin-strep (2.5 mL, Gibco, #15070). Sterile filtered and aliquoted. Selection maintained with Hygromycin-B (200 µg/mL, Thermo Fisher Scientific, #10687010).
Imaging buffer: Contains (in mM): 115 NaCl, 1.2 CaCl2, 1.2 MgCl2, 1.2 K2HPO4, 20 HEPES, 20 D-glucose. Adjusted to pH 7.4 with NaOH. Sterile filtered and aliquoted.
AtT-20 wild type (WT) and overexpressing rat CB2R cells (AtT-20(rCB2R)) were cultured in D10 culture media. […]
Fluorescence images were acquired with an Olympus Fluoview 1200 laser scanning confocal microscope using a 63× objective. […] For a direct comparison of the AtT-20(rCB2R) and wild type cells, one well of each genotype was labelled in parallel, and the identical settings on the confocal microscope were used between wells to accurately compare the dye fluorescence intensities.

[8] = 37 °C, hCB2R-HEK293 membranes, mean N = 3

T1 sequence (P34972 whole entry): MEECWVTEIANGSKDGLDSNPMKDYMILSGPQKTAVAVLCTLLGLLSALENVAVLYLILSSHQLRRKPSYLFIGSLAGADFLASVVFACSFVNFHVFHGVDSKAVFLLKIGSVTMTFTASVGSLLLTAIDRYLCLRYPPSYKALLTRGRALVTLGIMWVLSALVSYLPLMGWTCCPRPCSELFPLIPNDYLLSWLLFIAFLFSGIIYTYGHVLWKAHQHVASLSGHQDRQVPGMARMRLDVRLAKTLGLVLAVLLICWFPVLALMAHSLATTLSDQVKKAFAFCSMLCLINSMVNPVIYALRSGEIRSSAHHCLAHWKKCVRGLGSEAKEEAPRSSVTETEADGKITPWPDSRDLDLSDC

Row | Compound | EC50 ([1]; hCB2R-CHO cells, forskolin stimulated, mean N = 3) | Emax (cAMP) ([1]; normalized to agonist CP-55,940 response (100%) and basal level (0%)) | β-arrestin recruitment (BRET signal) [2] | koff [3, 8] | kon [3, 8] | τ (receptor residence time) [3, 8] | ΔΔG (Experimental) [3] | ΔΔG (Experimental) ([3]; listed as (R)–3) | Kd ([3]; kinetic Kd, 37 °C, hCB2R-HEK293 membranes, mean N = 3) | ΔG (Experimental) ([3]; ΔG exp = RT ln(Kd), T = 310 K, from experimental Kd values) | EC50 [4] | Ki [5] | Kd [6] | intracellular Ca2+ (Fluo-4AM fluorescence) [7]
1 | C#CCCC(=O)NCC1=CC(c2c(OC)cc(C(C)(C)C(CCCCCN=[N+]=[N-])c3ccccc3)cc2OC)C2CC1C2(C)C [(R)-3] | 33.1 nM | –55% | Baseline BRET signal was retained | 2.29 10^–2 min^–1 | 88.7 10^6 M^–1 min^–1 | 43.7 min | -0.9 kcal/mol | –0.90 kcal mol-1 | 0.26 nM | –13.6 kcal mol-1 | 60.3 nM | 0.66 nM | 0.42 nM | 
2 | C#CCCC(=O)NCC1=CC(c2c(OC)cc(C(C)(C)C(CCCCCN=[N+]=[N-])c3ccccc3)cc2OC)C2CC1C2(C)C [(S)-3/(R)-3] |  |  |  |  |  |  |  |  |  |  |  |  |  | did not elicit increase in Fluo-4AM fluorescence
3 | CCCCCCC(C)(C)c1cc(OC)c([C@@H]2C=C(CO)[C@@H]3C[C@H]2C3(C)C)c(OC)c1 [HU-308, reference compound] |  |  |  |  |  |  |  |  |  |  |  |  |  | triggered a robust fluorescence spike
